Results from the supplement of paper PMC10307832.

Experiments:
Assay in all cases: relative viability (nuclei count vs DMSO), 5 days (fraction); higher = more cells survive
BMX-IN-1 + Olaparib = compound: C=CC(=O)Nc1cc(-n2c(=O)ccc3cnc4ccc(-c5ccc(NS(C)(=O)=O)cc5)cc4c32)ccc1C [BMX-IN-1] + O=C(c1cc(Cc2n[nH]c(=O)c3ccccc23)ccc1F)N1CCN(C(=O)C2CC2)CC1 [Olaparib] (partner 8 µM)
How it was run: (§1)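 Relative viability equals treated-well nuclei counts divided by vehicle-well nuclei counts. Counts came from 4× images of lung cancer cell lines grown in 1536-well plates for 5 days after pin-tool dosing on the day after seeding. Dosing used one drug alone or a fixed anchor-drug dose plus five library-drug doses (not always all listed) in √10 steps, and values are medians of duplicate plates.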

Ibrutinib + Olaparib = compound: C=CC(=O)N1CCC[C@@H](n2nc(-c3ccc(Oc4ccccc4)cc3)c3c(N)ncnc32)C1 [Ibrutinib] + O=C(c1cc(Cc2n[nH]c(=O)c3ccccc23)ccc1F)N1CCN(C(=O)C2CC2)CC1 [Olaparib] (partner 8 µM)
How it was run: as §1

Ibrutinib + Alpelisib = compound: C=CC(=O)N1CCC[C@@H](n2nc(-c3ccc(Oc4ccccc4)cc3)c3c(N)ncnc32)C1 [Ibrutinib] + Cc1nc(NC(=O)N2CCC[C@H]2C(N)=O)sc1-c1ccnc(C(C)(C)C(F)(F)F)c1 [Alpelisib] (partner 2 µM)
How it was run: as §1

PAC-1 + Crizotinib = compound: C=CCc1cccc(/C=N/NC(=O)CN2CCN(Cc3ccccc3)CC2)c1O [PAC-1] + C[C@@H](Oc1cc(-c2cnn(C3CCNCC3)c2)cnc1N)c1c(Cl)ccc(F)c1Cl [Crizotinib] (partner 1 µM)
How it was run: as §1

Cell Line	relative viability (BMX-IN-1 + Olaparib; first compound 0.02 µM)	relative viability (BMX-IN-1 + Olaparib; first compound 0.2 µM)	relative viability (BMX-IN-1 + Olaparib; first compound 0.6325 µM)	relative viability (BMX-IN-1 + Olaparib; first compound 2 µM)	relative viability (Ibrutinib + Olaparib; first compound 0.005 µM)	relative viability (Ibrutinib + Olaparib; first compound 0.01581 µM)	relative viability (Ibrutinib + Olaparib; first compound 0.1581 µM)	relative viability (Ibrutinib + Olaparib; first compound 0.5 µM)	relative viability (Ibrutinib + Alpelisib; first compound 0.005 µM)	relative viability (Ibrutinib + Alpelisib; first compound 0.01581 µM)	relative viability (Ibrutinib + Alpelisib; first compound 0.05 µM)	relative viability (Ibrutinib + Alpelisib; first compound 0.1581 µM)	relative viability (Ibrutinib + Alpelisib; first compound 0.5 µM)	relative viability (PAC-1 + Crizotinib; first compound 0.02 µM)	relative viability (PAC-1 + Crizotinib; first compound 0.06325 µM)	relative viability (PAC-1 + Crizotinib; first compound 0.2 µM)	relative viability (PAC-1 + Crizotinib; first compound 2 µM)	relative viability (Ibrutinib + Olaparib; first compound 0.05 µM)
NCI-H358	0.634	0.743	0.71	0.548	0.469	0.508	0.747	0.248	0.817	0.603	0.504	0.887	0.36	0.552	0.531	0.751	0.453	
NCI-H441	0.52	0.658	0.619	0.591	0.794	0.728	0.768	0.567	0.908	0.54	0.868	0.871	0.711	0.725	0.77	0.714	0.655	0.652
NCI-H460	0.481	0.475	0.445	0.439	0.405	0.373	0.432	0.441	0.5	0.319	0.496	0.536	0.538	0.887	0.805	0.823	1.07	0.441
NCI-H520	0.323	0.368	0.301	0.273	0.417	0.334	0.298	0.35	0.892	0.797	1.04	1.09	0.759	0.772	0.746	0.735	0.698	0.377
NCI-H596	0.712	0.641	0.692	0.755	1.09	0.635	0.668	0.723	0.482	0.503	0.51	0.503	0.479	0.974	0.952	0.98	1.07	0.68
NCI-H647	0.687	1.04	0.553	0.574	0.638	0.387	0.57	0.637	1.15	1.01	1.14	1.45	1.21	1.06	1.12	1.03	0.812	0.62
NCI-H650	0.366	0.379	0.469	0.456	0.423	0.432	0.506	0.459		1		1.26	1.13	0.591	0.653	0.825	0.72	0.385
NCI-H661	0.963	0.758	0.81	0.738	0.716	0.706	0.773	0.579	0.467	0.68	0.358	0.524	0.216	0.927	1.06		1.06	0.719
NCI-H727	0.555	0.642	0.703	0.688	0.736	0.817	0.792	0.688	0.519	0.556	0.433	0.576	0.435	0.847	0.841	0.898	0.821	0.659
NCI-H838	0.81	0.933	0.915	0.859	0.794	0.693	0.866	0.825	0.836	1	1.14	1.01	0.987	0.776	0.758	0.801	0.92	0.849
NCI-H1299	1.05	0.978	0.992	1.03	1	0.964	0.98	0.924	1.08	1.01	1.03	1.06	1.06	0.936	0.94	0.937	0.891	0.978
NCI-H1355	0.805	0.813	0.713	0.749		0.664	0.73	0.661		0.704	0.782	0.887	0.646	1.08	1.08	1.17	1.03	0.77
NCI-H1437	0.662	0.647	0.692	0.664	0.681	0.626	0.641	0.628	0.958	0.937	1.01	0.988	1.03	0.883	0.913	0.85	0.68	0.721
NCI-H1651	0.175	0.182	0.18	0.183	0.193	0.183	0.176	0.185	0.903	0.938	0.995	0.935	1.1	0.815	0.898	0.874	0.755	0.173
NCI-H1666	0.753	0.806	0.631	0.769	0.844	0.672	0.694	0.703	0.677	0.726		1.11	0.426	0.981	0.897	1.05	1	0.772
NCI-H1703	0.486	0.368	0.284	0.336	0.317	0.289	0.4	0.327	0.273	0.362	0.362	0.397	0.243	0.588	0.897	0.851	0.622	0.449
NCI-H1734	0.645	0.683	0.689	0.604	0.57	0.629	0.67	0.592	0.557	0.583	0.705	0.669	0.654	0.698	0.627	0.659	0.766	0.788
NCI-H1755	0.903	0.941	1.01	0.873	0.921	0.886	0.926	0.894	0.939	0.893	1.03	0.981	0.932	0.938	0.867	0.847	0.805	0.88

Cell Line	relative viability (BMX-IN-1 + Olaparib; first compound 0.02 µM)	relative viability (BMX-IN-1 + Olaparib; first compound 0.2 µM)	relative viability (BMX-IN-1 + Olaparib; first compound 0.6325 µM)	relative viability (BMX-IN-1 + Olaparib; first compound 2 µM)	relative viability (Ibrutinib + Olaparib; first compound 0.005 µM)	relative viability (Ibrutinib + Olaparib; first compound 0.01581 µM)	relative viability (Ibrutinib + Olaparib; first compound 0.1581 µM)	relative viability (Ibrutinib + Olaparib; first compound 0.5 µM)	relative viability (Ibrutinib + Alpelisib; first compound 0.005 µM)	relative viability (Ibrutinib + Alpelisib; first compound 0.01581 µM)	relative viability (Ibrutinib + Alpelisib; first compound 0.05 µM)	relative viability (Ibrutinib + Alpelisib; first compound 0.1581 µM)	relative viability (Ibrutinib + Alpelisib; first compound 0.5 µM)	relative viability (PAC-1 + Crizotinib; first compound 0.02 µM)	relative viability (PAC-1 + Crizotinib; first compound 0.06325 µM)	relative viability (PAC-1 + Crizotinib; first compound 0.2 µM)	relative viability (PAC-1 + Crizotinib; first compound 2 µM)	relative viability (Ibrutinib + Olaparib; first compound 0.05 µM)
NCI-H1792	0.492	0.436	0.491	0.322		0.506	0.353	0.379	0.716	0.698	0.764	0.782	0.65	0.988	1.04	1.03	0.909	0.402
NCI-H1915	0.267	0.27	0.263	0.246	0.283	0.256	0.281	0.241		1	1.06	1.07	1.05	0.892	0.899	0.85	0.857	0.257
NCI-H1944	0.439	0.414	0.396	0.435	0.411	0.404	0.387	0.359	0.659	0.685	0.784	0.755	0.521	1.06	1.16	1.02	1.14	0.413
NCI-H1975	0.837	1.02	0.853	0.841	0.886	0.775	0.802	0.482	0.594	0.418	0.475	0.634	0.212	0.919	0.916	0.944	1	0.688
NCI-H1993	1.21	1.15	0.913	1.06	0.849	0.939	1.15	0.836	0.644	0.715	0.613		0.742	0.811	0.831	0.626	0.743	1.36
NCI-H2009	0.838	0.646	0.654	0.66	0.754	0.671	0.802	0.738	1.24	1.12	1.16	1.15	1.16	1.04	1.05	0.979	0.964	0.771
NCI-H2023	0.516	0.655	0.47	0.489	0.492	0.528	0.516	0.542	0.567	0.574	0.492	0.66	0.568	0.629	0.635	0.534	0.586	0.457
NCI-H2085	0.807	0.704	0.782	0.746	0.764	0.735	0.749	0.748	0.965	0.893	0.862	0.977	0.743	0.742	0.899	0.789	0.947	0.736
NCI-H2087	0.627	0.62	0.556	0.643	0.602	0.715		0.724	1.09		1.19		1.19	0.995	0.966	0.728	0.68	0.691
NCI-H2126	0.979	0.897	1.03	0.875	0.879	0.899	0.905	0.747		0.7	0.769	0.763	0.606	1.03	1.02	1.05	1	0.88
NCI-H2170	0.587	0.677	0.717	0.624	0.568	0.502	0.607	0.156	0.728	0.362	0.278	0.773	0.231	1.15	1.25	1.14	1.03	0.433
NCI-H2228	0.768	0.835	0.667	0.784	0.774	0.601	1.08	0.715	0.807	0.677	0.747	0.723	0.671	0.467	0.416	0.498	0.398	0.776
NCI-H2347	0.523	0.603	0.597	0.573	0.659	0.512	0.619	0.536	1	1.1	0.933	1.01	1.12	0.82	0.715	0.748	0.826	0.626
NCI-H2405	0.958	0.958	0.977	0.865	0.877	0.877		0.953	0.706	0.713	0.83		0.706	0.862	0.829	0.818	0.862	
NCI-H3122	0.678	0.781	0.672	0.64	0.774	0.6	0.644	0.695	0.686	0.743	0.873	0.583	0.711	0.251	0.274	0.234	0.294	0.582
PC-3 [JPC-3]	1.25	1.46	1.06	1.1	1.21	0.996	1.29	0.523	1.03	0.946	0.941	1.04	0.517	1.03	1.07	0.944	0.972	0.93
PC-14	0.265	0.265	0.297	0.266	0.369	0.318	0.286	0.265	0.974	0.954	0.909	1.05	0.632	0.946	0.931	0.855	0.945	0.37
RERF-LC-KJ	0.968	1.09	1.06	0.923	0.994	0.863	0.965	0.868	0.526	0.731	0.791	0.638	0.585	0.814	0.868	0.811	0.923	0.89
